# “And” between values parts separate entries of the source, which are not always exact repeats. Equal entries are not always repeated. Where two headings read alike, the source gives them in different places.
# Legend:
# [1] = Pharmacokinetics in uninfected vervet monkeys; details: for half-life: po, geometric mean terminal elimination half-life
# [2] = test system: T. b. rhodesiense STIB900; set-up: method as in PMID 19620327; details: intraperitoneal administration; cited from earlier work
# [3] = Pharmacokinetics in infected vervet monkeys (first stage HAT); assay type: in vivo, vervet monkey; details: for AUClast: last measurable concentration varied (2–133 days)
# [4] = test system: T. b. brucei s427 trypanosomes; set-up: method as in PMID 21402852; details: 2.7 µM; cited from earlier work
# T. b. brucei GVR35 = test system: T. b. brucei GVR35; set-up: method as in PMID 19620327; details: intraperitoneal administration; cited from earlier work
# [5] = test system: T. b. rhodesiense STIB900; set-up: method as in PMID 19620327; details: in vitro; cited from earlier work
# [6] = Metabolism of DB868 in vervet monkey liver microsomes; assay type: in vitro ADME; details: incubation of 10 µM DB868; HPLC/UV; formation confirmed by fluorescence and mass spectrometric detection
# Procedure: DB868 metabolism was studied in male vervet monkey liver microsomes (custom-prepared by XenoTech, LLC, Lenexa, KS, USA) by adapting a previously published method. Briefly, incubation mixtures contained 10 µM DB868, 0.5 mg/mL monkey liver microsomes, and 3.3 mM MgCl2 in 100 mM phosphate buffer (pH 7.4). Reactions were initiated by the addition of NADPH (1 mM final concentration). Control incubations were carried out without NADPH, DB868, or liver microsomes. Aliquots (100 µL) of the reaction mixtures were removed at 0, 5, 10, 15, 30, 60 and 120 min and mixed with 100 µL of ice-cold acetonitrile. After centrifugation to pellet precipitated proteins, the supernatants were analyzed by HPLC/UV and fluorescence using the method previously described for pafuramidine (DB289) and furamidine (DB75). Metabolite identification was performed by comparing retention times to those of synthetic standards for M1 (DB1679), M2 (DB840), M3 (DB1712), and DB829. DB868 and its metabolites were quantified using a calibration curve (0.1–10 µM) generated using synthetic standards.
# [7] = set-up: method as in earlier work; details: cited from earlier work
# [8] = oral administration, cited from earlier work
# [9] = test system: T. b. rhodesiense KETRI 2537; set-up: method as in PMID 19064893; details: oral, for 5 days; first stage HAT monkey model; cited from earlier work
# [10] = set-up: method as in PMID 20721830; details: cited from earlier work
# [11] = after final oral dose of DB868 10 mg/kg×10 days, uninfected, individual monkeys
# [12] = after final oral dose of DB868 30 mg/kg×10 days, uninfected, individual monkeys
# [13] = oral DB868 10 mg/kg group, infected
# [14] = oral DB868 20 mg/kg group, infected
# [15] = oral DB868 20 mg/kg×5 days, infected, individual monkeys
smiles,measurement,setting,value
"N=C(N)c1ccc(-c2ccc(-c3ccc(C(=N)N)cn3)o2)nc1 [DB829, 2,5-bis(5-amidino-2-pyridyl)furan]",AUC0-∞,[1]; [11],3700 nmol/L•day (2×) and 4100 nmol/L•day and 2400 nmol/L•day
same,AUClast,[1]; [11],3000 nmol/L•day and 2800 nmol/L•day and 2100 nmol/L•day (2×)
same,t1/2 (terminal elimination half-life),[1]; [11],30 day (2×) and 55 day and 18 day
same,AUC0-∞,[1]; [12],5600 nmol·days/L and 7000 nmol·days/L and 6200 nmol·days/L and 12100 nmol·days/L
same,AUClast,[1]; [12],4700 nmol·days/L and 5700 nmol·days/L and 4600 nmol·days/L and 7100 nmol·days/L
same,concentration at 4 h,"[1]; both, monkey, in vivo, 10 mg/kg, C4 h, plasma concentration at 4 h after final (10th) oral dose of DB868 10 mg/kg×10 days, uninfected, individual monkeys 643, 659, 675, 677",0.24 µM
same,concentration at 4 h,"[1]; both, monkey, in vivo, 10 mg/kg/day, geometric mean C4 h, oral DB868 10 mg/kg/day×10 days, uninfected, n = 4",0.185 µM
same,concentration at 4 h,"[1]; both, monkey, in vivo, 30 mg/kg, C4 h, plasma concentration at 4 h after final (10th) oral dose of DB868 30 mg/kg×10 days, uninfected, individual monkeys 546, 567, 668, 679",0.44 µM
same,concentration at 24 h,"[1]; both, monkey, in vivo, 30 mg/kg, C24 h, plasma, 24 h after final oral dose of DB868 30 mg/kg×10 days, uninfected, individual monkeys",0.36 µM
same,concentration at 4 h,"[1]; both, monkey, in vivo, 30 mg/kg/day, geometric mean C4 h, oral DB868 30 mg/kg/day×10 days, uninfected, n = 4",0.32 µM
same,half-life,"[1]; both, monkey, in vivo, 10 mg/kg/day, oral DB868 10 mg/kg/day×10 days, uninfected (second of 'respectively'; agrees with Table 1)",744 h
same,half-life,"[1]; both, monkey, in vivo, 30 mg/kg/day, oral DB868 30 mg/kg/day×10 days, uninfected (first of 'respectively'; agrees with Table 1)",696 h
same,geometric mean C4 h relative to IC50 (14 nmol/L) against T. b. rhodesiense STIB900,"[1]; oral DB868 10 mg/kg/day×10 days, uninfected",13 fold
same,geometric mean C4 h relative to IC50 (14 nmol/L) against T. b. rhodesiense STIB900,"[1]; oral DB868 30 mg/kg/day×10 days, uninfected",23 fold
same,time plasma concentrations remained >100 nmol/L after last DB868 dose,"[1]; oral DB868, in some monkeys (Figures 6 and 8, uninfected and infected)",up to 7 days post-LDD
same,"geometric mean AUC0-∞, 30 mg/kg group relative to 10 mg/kg group","[1]; oral DB868×10 days, uninfected",2.2 fold
same,"geometric mean AUClast, 30 mg/kg group relative to 10 mg/kg group","[1]; oral DB868×10 days, uninfected",2.2 fold
same,C4 h,"[1]; plasma concentration at 4 h after final (10th) oral dose of DB868 10 mg/kg×10 days, uninfected, individual monkeys 643, 659, 675, 677",0.16 µM and 0.18 µM and 0.17 µM
same,C4 h,"[1]; plasma concentration at 4 h after final (10th) oral dose of DB868 30 mg/kg×10 days, uninfected, individual monkeys 546, 567, 668, 679",0.29 µM and 0.3 µM and 0.27 µM
same,C24 h,"[1]; plasma, 24 h after final oral dose of DB868 10 mg/kg×10 days, uninfected, individual monkeys, BLQ = below limit of quantitation",0.14 µM and 0.26 µM and 0.12 µM and 0.17 µM
same,C24 h,"[1]; plasma, 24 h after final oral dose of DB868 30 mg/kg×10 days, uninfected, individual monkeys",0.21 µM and 0.28 µM and 0.34 µM
same,curative,[2],100%
same,Cmax,"[3]; after final oral dose of DB868 3 mg/kg×7 days, first stage HAT, individual monkeys 638, 643, read-out: Cmax",0.23 µM
same,Cmax,"[3]; after final oral dose of DB868 10 mg/kg×7 days, first stage HAT, individual monkeys 675, 691, read-out: Cmax",0.2 µM
same,Tmax,"[3]; after final oral dose of DB868 20 mg/kg×5 days, infected, individual monkeys",4.08 h
same,Tmax,"[3]; monkey, plasma, po, 3 mg/kg, oral DB868 3 mg/kg group, infected, read-out: median Tmax (converted)",4 h
same,Cmax,"[3]; monkey, plasma, po, 3 mg/kg/day, oral DB868 3 mg/kg/day×7 days, infected, read-out: median Cmax",0.17 µM
same,Tmax,"[3]; monkey, plasma, po, 10 mg/kg, oral DB868 10 mg/kg group, infected, read-out: median Tmax (converted)",24 h
same,Cmax,"[3]; monkey, plasma, po, 10 mg/kg/day, after final oral dose of DB868 10 mg/kg×7 days, first stage HAT, individual monkeys 675, 691, read-out: Cmax",0.21 µM
same,Cmax,"[3]; monkey, plasma, po, 10 mg/kg/day, oral DB868 10 mg/kg/day×7 days, infected, read-out: median Cmax",0.205 µM
same,half-life,"[3]; monkey, plasma, po, 10 mg/kg/day, oral DB868 10 mg/kg×7 days, infected, monkey 691, read-out: t1/2 (terminal elimination half-life) (converted)",600 h
same,Tmax,"[3]; monkey, plasma, po, 20 mg/kg, oral DB868 20 mg/kg group, infected, read-out: median Tmax (converted)",4 h
same,Cmax,"[3]; monkey, plasma, po, 20 mg/kg/day, after final oral dose of DB868 20 mg/kg×5 days, first stage HAT, individual monkeys 585, 658, read-out: Cmax",0.37 µM
same,Tmax,"[3]; monkey, plasma, po, 20 mg/kg/day, after final oral dose of DB868 20 mg/kg×5 days, infected, individual monkeys, read-out: Tmax (converted)",4.08 h
same,Cmax,"[3]; monkey, plasma, po, 20 mg/kg/day, oral DB868 20 mg/kg/day×5 days, infected, read-out: median Cmax",0.435 µM
same,median Cmax relative to IC50 (14 nmol/L) against T. b. rhodesiense STIB900,"[3]; oral DB868 3 mg/kg/day for 7 days, infected",12 fold
same,AUClast,"[3]; oral DB868 3 mg/kg×7 days, infected, individual monkeys",160 nmol·days/L and 950 nmol·days/L
same,mean AUClast relative to 3 mg/kg group,[3]; [13],7 fold
same,median Cmax relative to 3 mg/kg group,[3]; [13],1.2 fold
same,median Cmax relative to IC50 (14 nmol/L) against T. b. rhodesiense STIB900,"[3]; oral DB868 10 mg/kg/day for 7 days, infected",15 fold
same,AUClast,"[3]; oral DB868 10 mg/kg×7 days, infected, individual monkeys",4000 nmol·days/L and 3500 nmol·days/L
same,AUC0-∞,"[3]; oral DB868 10 mg/kg×7 days, infected, monkey 691",3900 nmol·days/L
same,mean AUClast relative to 3 mg/kg group,[3]; [14],10 fold
same,median Cmax relative to 3 mg/kg group,[3]; [14],2.6 fold
same,median Cmax relative to IC50 (14 nmol/L) against T. b. rhodesiense STIB900,"[3]; oral DB868 20 mg/kg/day for 5 days, infected",31 fold
same,AUC0-∞,[3]; [15],10000 nmol·days/L and 5300 nmol·days/L
same,t1/2 (terminal elimination half-life),[3]; [15],85 days and 24 days
same,AUClast,[3]; [15],7300 nmol·days/L and 4100 nmol·days/L
same,median AUC0-∞ of 20 mg/kg group relative to monkey 691 (10 mg/kg group),"[3]; oral DB868, infected",twice
same,median terminal elimination half-life of 20 mg/kg group relative to monkey 691 (10 mg/kg group),"[3]; oral DB868, infected",twice
same,exposure required to kill trypanosomes in culture,[4],24 h
same,curative,T. b. brucei GVR35,100%
same,IC50,[5],0.014 µM
same,detection of active compound formed from DB868,[6],at the limit of detection in UV mode
"CONC(=N)c1ccc(-c2ccc(-c3ccc(C(=N)NOC)cc3)o2)cc1 [pafuramidine, 2,5-bis(4-amidinophenyl)furan-bis-O-methylamidoxime]",increase in KIM-1,"[7]; oral 12 mg/kg/day×28 days, one week post-LDD",13 fold
same,increase in ALT compared to untreated rats,"[7]; rats, 12 mg/kg/day for 4 weeks",18 fold
same,"classical kidney injury biomarkers, BUN and serum creatinine",[8]; mouse diversity panel,remained unchanged
same,urinary kidney injury molecule-1 (KIM-1),[8]; sensitive strains of 34 inbred mouse strains,marked elevations
same,dose required to achieve complete cure,[9],10 mg/kg
same,liver injury,[10]; extended phase I clinical trial in humans,transient liver injury
same,patients with unexpected severe kidney injury,[10]; five patients,~6%
